Experimental data from patent US20160074517A1, “AQUEOUS FORMULATIONS OF SPARINGLY WATER-SOLUBLE ACTIVE INGREDIENTS COMPRISING AS SOLUBILIZER A MIXTURE OF POLOXAMERS DIFFERING IN HYDROPHOBICITY” (BASF SE, priority 2013, published 2016).

Experiment: Solubilization of sparingly water-soluble active ingredient in aqueous poloxamer formulations, quantified by UV/Vis spectroscopy
Format: physicochemical
Method: General procedure for the preparation of the aqueous formulations: […]
The data in % by weight in the tables below refer to the total amount of the aqueous formulation.
Components A and B in the amounts stated below in each case and also 2% by weight of active ingredient were dissolved in water (at 20° C. and ambient pressure).
The sample was stirred at 20° C. for 24 h (magnetic stirrer 500 rpm) and then filtered through an injection filter (PVDF filter membrane, 0.45 μm pore size).
The active ingredient quantification takes place via UV/Vis spectroscopy. For this, the samples were diluted with an organic solvent in which the active ingredient dissolves to at least 10 000 ppm (1% by weight) (ethanol).
By contrast, the solubilizing effect of a 5% strength by weight aqueous solution of PE10400 as individual component was stipulated as standard with the value 1 and the solubilizing effect of the mixtures was determined against this standard.
The solubilizing effect of a 5% strength by weight aqueous solution of PE 10400 was again selected as standard 1.

Cn1cc(C(=O)Nc2ccccc2-c2cc(F)c(F)c(F)c2)c(C(F)F)n1 [fluxapyroxad]
solubility in a 5% strength by weight aqueous solution of PE 4300 (component B) (5% by weight PE 4300 in water, 20° C., 24 h stirring, filtered 0.45 μm): 28 ppm
solubility in a 5% strength by weight aqueous solution of PE 6200 (component B) (5% by weight PE 6200 in water, 20° C., 24 h stirring, filtered 0.45 μm): 31 ppm
solubility in a 5% strength by weight aqueous solution of PE 10400 (component A) (5% by weight PE 10400 in water, 20° C., 24 h stirring, filtered 0.45 μm): 710 ppm
solubility in pure water (pure water): 5 ppm
